Measurements from patent US5654398A, “Compositions and methods for inhibiting replication of human immunodeficiency virus-1” (priority 1993, dated 1997).
Entries after “also recorded” stand apart in the source; their conditions may differ. Residues, ends and D or L forms follow the SMILES beside them.

Legend:
mutant (C46-G74) IIB RNA = format: binding, HIV-1; details: for Kd: read-out: Knonsp (apparent Kd, mutant IIB RNA)
Description: (§1) Gel shift assays were performed at 4° C. unless described otherwise. Peptide and RNA were incubated together for 15 min on ice in 10 μl binding reactions containing 10 mM HEPES-KOH, pH 7.5, 100 mM KCl, 1 mM MgCl2, 0.5 mM EDTA, 1 mM dithithreitol, 50 μg/ml E. coli tRNA, and 10% glycerol. To determine relative binding affinities, 0.5 nM radiolabeled IIB RNA (or IIB mutant) was titrated with peptide. Peptide-RNA complexes were resolved in 10% polyacrylamide, 0.5x TBE gels that had been prerun for 1 hr and allowed to cool to 4° C. Gels were electrophoresed at 220 V for 3 hr at 4° C., dried, and autoradiographed.
(§2) FIG. 3C. Relationship between helix content of the Rev34-50 peptides and RNA-binding specificity. Apparent Kd s (the peptide concentration at which 50% of the RNA was shifted) were determined for wild-type (specific; Ksp) and mutant (nonspecific; Knonsp) IIB RNAs from the date in FIGS. 3A and 3B. Specificity, the ratio of specific to nonspecific apparent association constants (Ka s) is plotted against the helix content for each peptide, determined from the CD ellipticity at 222 nm (Chen et al., (1974) "Determination of the Helix and Beta Form of Proteins in Aqueous Solution by Circular Dichroism" Biochemistry 13:3350-3359 ) Peptide I: helix=0.1%; ksp =2000 nM; Knonsp =3000 nM. Peptide II: helix=3.9%; Ksp =300 nM; Knonsp =2000 nM. Peptide III: helix=10.9%; Ksp =100 nM; Knonsp =2000 nM. Peptide IV: helix=27.9%; Ksp =40 nM; Knonsp =2000 nM. Peptide V: helix=51.2%; Ksp =20 nM; Knonsp 1500 nM.

wild-type RRE IIB RNA = format: binding, HIV-1; details: for Kd: read-out: Ksp (apparent Kd, wild-type IIB RNA)
Description: as §1, §2

[1] = Circular dichroism, α-helix content; format: physicochemical; details: for % Helix (α-helix content): from CD ellipticity at 222 nm, 4° C., pH 7.5
Description: CD spectra were measured using an Aviv model 62DS spectropolarimeter. Samples were prepared in 10 mM potassium phosphate buffer, pH 7.5 and 100 mM KF, and temperature was maintained at 4° C. unless described otherwise. Spectra were recorded from 320 nm to 190 nm using a 1 cm pathlength cuvette and the signal was averaged for 10 sec. Scans were repeated five times and averaged. Peptide concentrations were typically 5-20 μM and ellipticity was calculated per amino acid residue.
as §2

[2] = tested on: IIB RNA mutant A47 (G47 to A47); assay: RNA-binding gel shift assay, A47 mutant IIB RNA; set-up: species or system HIV-1; details: in the presence of tRNA
Description: as §1
(§3) FIG. 1B. Peptide binding to IIB mutants. Binding reactions were carried out in the presence of tRNA at the peptide concentrations indicated, and free RNA and peptide-RNA complexes were resolved by the gel shift assay. Each pair of lanes corresponds to RNA alone and peptide-RNA binding reactions. […]. The wild-type lanes on both sides of the gel are identical. The slower mobility of the A71 mutant in the absence of peptide may indicate that its unbound conformation is different than wild-type IIB. […] This phenomenon has been seen with other mutant RNAs and with mutant Rev peptides, and has been interpreted as differences in RNA conformation between specific and nonspecific complexes (Kjems et al. (1992), supra).

[3] = tested on: IIB RNA mutant A71 (G71 to A71); assay: RNA-binding gel shift assay, A71 mutant IIB RNA; set-up: species or system HIV-1; details: in the presence of tRNA
Description: as §1, §3

| SMILES | Kd (mutant (C46-G74) IIB RNA) | Kd (wild-type RRE IIB RNA) | % Helix (α-helix content) [1] | Reduction of affinity compared to wild-type IIB [2] | Reduction of affinity compared to wild-type IIB (mutant (C46-G74) IIB RNA; C46-G74 base pair mutant, in the presence of tRNA) | Reduction of affinity compared to wild-type IIB [3] | specific RNA binding / discrimination between wild-type and mutant IIB RNAs (in words) (wild-type RRE IIB RNA) | α-helix content by CD (in words) ([1]; CD spectra) | % Helix (α-helix content) ([1]; listed as N-Rev34-50 --am) |
| --- | --- | --- | --- | --- | --- | --- | --- | --- | --- |
| CC(=O)N[C@H](C(=O)N[C@@H](CCCNC(=N)N)C(=O)N[C@@H](CCC(N)=O)C(=O)N[C@@H](C)C(=O)N[C@@H](CCCNC(=N)N)C(=O)N[C@@H](CCCNC(=N)N)C(=O)N[C@@H](CC(N)=O)C(=O)N[C@@H](CCCNC(=N)N)C(=O)N[C@@H](CCCNC(=N)N)C(=O)N[C@@H](CCCNC(=N)N)C(=O)N[C@@H](CCCNC(=N)N)C(=O)N[C@@H](Cc1c[nH]c2ccccc12)C(=O)N[C@@H](CCCNC(=N)N)C(=O)N[C@@H](CCC(=O)O)C(=O)N[C@@H](CCCNC(=N)N)C(=O)N[C@@H](CCC(N)=O)C(=O)N[C@@H](CCCNC(=N)N)C(N)=O)[C@@H](C)O [Peptide III] (Ac-TRQARRNRRRRWRERQR-NH2) | 2 µM | 0.1 µM | 10.9% | – | – | – | – | – | – |
| C[C@H](NC(=O)[C@H](CCC(N)=O)NC(=O)[C@H](CCCNC(=N)N)NC(=O)[C@@H](N)[C@@H](C)O)C(=O)N[C@@H](CCCNC(=N)N)C(=O)N[C@@H](CCCNC(=N)N)C(=O)N[C@@H](CC(N)=O)C(=O)N[C@@H](CCCNC(=N)N)C(=O)N[C@@H](CCCNC(=N)N)C(=O)N[C@@H](CCCNC(=N)N)C(=O)N[C@@H](CCCNC(=N)N)C(=O)N[C@@H](Cc1c[nH]c2ccccc12)C(=O)N[C@@H](CCCNC(=N)N)C(=O)N[C@@H](CCC(=O)O)C(=O)N[C@@H](CCCNC(=N)N)C(=O)N[C@@H](CCC(N)=O)C(=O)N[C@@H](CCCNC(=N)N)C(N)=O [Rev34-50] (H-TRQARRNRRRRWRERQR-NH2) | – | – | – | about 10 fold | about 10 fold | about 10 fold | – | – | – |
| C[C@H](NC(=O)[C@H](CCC(N)=O)NC(=O)[C@H](CCCNC(=N)N)NC(=O)[C@@H](N)[C@@H](C)O)C(=O)N[C@@H](CCCNC(=N)N)C(=O)N[C@@H](CCCNC(=N)N)C(=O)N[C@@H](CC(N)=O)C(=O)N[C@@H](CCCNC(=N)N)C(=O)N[C@@H](CCCNC(=N)N)C(=O)N[C@@H](CCCNC(=N)N)C(=O)N[C@@H](CCCNC(=N)N)C(=O)N[C@@H](Cc1c[nH]c2ccccc12)C(=O)N[C@@H](CCCNC(=N)N)C(=O)N[C@@H](CCC(=O)O)C(=O)N[C@@H](CCCNC(=N)N)C(=O)N[C@@H](CCC(N)=O)C(=O)N[C@@H](CCCNC(=N)N)C(=O)O [Peptide I] (H-TRQARRNRRRRWRERQR-OH) | 3 µM | 2 µM | 0.1% | – | – | – | binds only slightly better to wild-type IIB than to the mutant RNA; also recorded: essentially unable to discriminate between wild-type and mutant RNAs | mostly unstructured | – |
| C[C@H](NC(=O)[C@H](CCC(N)=O)NC(=O)[C@H](CCCNC(=N)N)NC(=O)[C@@H](N)[C@@H](C)O)C(=O)N[C@@H](CCCNC(=N)N)C(=O)N[C@@H](CCCNC(=N)N)C(=O)N[C@@H](CC(N)=O)C(=O)N[C@@H](CCCNC(=N)N)C(=O)N[C@@H](CCCNC(=N)N)C(=O)N[C@@H](CCCNC(=N)N)C(=O)N[C@@H](CCCNC(=N)N)C(=O)N[C@@H](Cc1c[nH]c2ccccc12)C(=O)N[C@@H](CCCNC(=N)N)C(=O)N[C@@H](CCC(=O)O)C(=O)N[C@@H](CCCNC(=N)N)C(=O)N[C@@H](CCC(N)=O)C(=O)N[C@@H](CCCNC(=N)N)C(N)=O [Peptide II, N-Rev34-50 --am] (H-TRQARRNRRRRWRERQR-NH2) | 2 µM | 0.3 µM | 3.9% | – | – | – | – | – | approximately 4% |
